Data as given in patent US20030199431A1, “Modified peptide nucleic acid (PNA) molecules” (priority 1999, published 2003).
Where two headings read alike, the source gives them in different places.

Columns and labels:
[1] = test system: E. coli K12; format: cell-based, Escherichia coli
Procedure: To test the effect of a Peptide without a PNA, peptide no. 2339, H-KFFKFFKFF-OH (SEQ ID NO: 1), was added to E. coli K12 in 10% and 100% medium (Mueller-Hinton broth).

[2] = test system: test culture; format: cell-based
[3] = test system: E. coli K12; format: cell-based, Escherichia coli; remark: listed apart in the source

H-KFFKFFKFF-OH [Peptide 2339]
Bacterial growth inhibition ([1]; Peptide 100 nM, 4.0 × 10^3 bacteria/ml, 10% medium): − (Lagphase extended less than five times;)
Bacterial growth inhibition ([1]; Peptide 100 nM, 4.0 × 10^4 bacteria/ml, 10% medium): − (Lagphase extended less than five times;)
Bacterial growth inhibition ([1]; Peptide 100 nM, 7.9 × 10^3 bacteria/ml, 10% medium): − (Lagphase extended less than five times;)
Bacterial growth inhibition ([1]; Peptide 100 nM, 16 bacteria/ml, 100% medium): − (Lagphase extended less than five times)
Bacterial growth inhibition ([1]; Peptide 100 nM, 160 bacteria/ml, 100% medium): − (Lagphase extended less than five times)
Bacterial growth inhibition ([1]; Peptide 100 nM, 1600 bacteria/ml, 100% medium): − (Lagphase extended less than five times)
Bacterial growth inhibition ([1]; Peptide 300 nM, 4.0 × 10^3 bacteria/ml, 10% medium): − (Lagphase extended less than five times;)
Bacterial growth inhibition ([1]; Peptide 300 nM, 4.0 × 10^4 bacteria/ml, 10% medium): − (Lagphase extended less than five times;)
Bacterial growth inhibition ([1]; Peptide 300 nM, 7.9 × 10^3 bacteria/ml, 10% medium): − (Lagphase extended less than five times;)
Bacterial growth inhibition ([1]; Peptide 300 nM, 16 bacteria/ml, 100% medium): − (Lagphase extended less than five times)
Bacterial growth inhibition ([1]; Peptide 300 nM, 160 bacteria/ml, 100% medium): − (Lagphase extended less than five times)
Bacterial growth inhibition ([1]; Peptide 300 nM, 1600 bacteria/ml, 100% medium): − (Lagphase extended less than five times)
Bacterial growth inhibition ([1]; Peptide 500 nM, 4.0 × 10^3 bacteria/ml, 10% medium): − (Lagphase extended less than five times;)
Bacterial growth inhibition ([1]; Peptide 500 nM, 4.0 × 10^4 bacteria/ml, 10% medium): − (Lagphase extended less than five times;)
Bacterial growth inhibition ([1]; Peptide 500 nM, 7.9 × 10^3 bacteria/ml, 10% medium): − (Lagphase extended less than five times;)
Bacterial growth inhibition ([1]; Peptide 500 nM, 16 bacteria/ml, 100% medium): − (Lagphase extended less than five times)
Bacterial growth inhibition ([1]; Peptide 500 nM, 160 bacteria/ml, 100% medium): − (Lagphase extended less than five times)
Bacterial growth inhibition ([1]; Peptide 500 nM, 1600 bacteria/ml, 100% medium): − (Lagphase extended less than five times)
Bacterial growth inhibition ([1]; Peptide 700 nM, 4.0 × 10^3 bacteria/ml, 10% medium): − (Lagphase extended less than five times;)
Bacterial growth inhibition ([1]; Peptide 700 nM, 4.0 × 10^4 bacteria/ml, 10% medium): − (Lagphase extended less than five times;)
Bacterial growth inhibition ([1]; Peptide 700 nM, 7.9 × 10^3 bacteria/ml, 10% medium): − (Lagphase extended less than five times;)
Bacterial growth inhibition ([1]; Peptide 700 nM, 16 bacteria/ml, 100% medium): − (Lagphase extended less than five times)
Bacterial growth inhibition ([1]; Peptide 700 nM, 160 bacteria/ml, 100% medium): − (Lagphase extended less than five times)
Bacterial growth inhibition ([1]; Peptide 700 nM, 1600 bacteria/ml, 100% medium): − (Lagphase extended less than five times)
Bacterial growth inhibition ([1]; Peptide 900 nM, 4.0 × 10^3 bacteria/ml, 10% medium): − (Lagphase extended less than five times;)
Bacterial growth inhibition ([1]; Peptide 900 nM, 4.0 × 10^4 bacteria/ml, 10% medium): − (Lagphase extended less than five times;)
Bacterial growth inhibition ([1]; Peptide 900 nM, 7.9 × 10^3 bacteria/ml, 10% medium): − (Lagphase extended less than five times;)
Bacterial growth inhibition ([1]; Peptide 900 nM, 16 bacteria/ml, 100% medium): − (Lagphase extended less than five times)
Bacterial growth inhibition ([1]; Peptide 900 nM, 160 bacteria/ml, 100% medium): − (Lagphase extended less than five times)
Bacterial growth inhibition ([1]; Peptide 900 nM, 1600 bacteria/ml, 100% medium): − (Lagphase extended less than five times)
Bacterial growth inhibition ([1]; Peptide 1100 nM, 4.0 × 10^3 bacteria/ml, 10% medium): − (Lagphase extended less than five times;)
Bacterial growth inhibition ([1]; Peptide 1100 nM, 4.0 × 10^4 bacteria/ml, 10% medium): − (Lagphase extended less than five times;)
Bacterial growth inhibition ([1]; Peptide 1100 nM, 7.9 × 10^3 bacteria/ml, 10% medium): − (Lagphase extended less than five times;)
Bacterial growth inhibition ([1]; Peptide 1100 nM, 16 bacteria/ml, 100% medium): − (Lagphase extended less than five times)
Bacterial growth inhibition ([1]; Peptide 1100 nM, 160 bacteria/ml, 100% medium): − (Lagphase extended less than five times)
Bacterial growth inhibition ([1]; Peptide 1100 nM, 1600 bacteria/ml, 100% medium): − (Lagphase extended less than five times)
Bacterial growth inhibition ([1]; Peptide 1300 nM, 4.0 × 10^3 bacteria/ml, 10% medium): − (Lagphase extended less than five times;)
Bacterial growth inhibition ([1]; Peptide 1300 nM, 4.0 × 10^4 bacteria/ml, 10% medium): − (Lagphase extended less than five times;)
Bacterial growth inhibition ([1]; Peptide 1300 nM, 7.9 × 10^3 bacteria/ml, 10% medium): − (Lagphase extended less than five times;)
Bacterial growth inhibition ([1]; Peptide 1300 nM, 16 bacteria/ml, 100% medium): − (Lagphase extended less than five times)
Bacterial growth inhibition ([1]; Peptide 1300 nM, 160 bacteria/ml, 100% medium): − (Lagphase extended less than five times)
Bacterial growth inhibition ([1]; Peptide 1300 nM, 1600 bacteria/ml, 100% medium): − (Lagphase extended less than five times)
Bacterial growth inhibition ([1]; Peptide 1500 nM, 4.0 × 10^3 bacteria/ml, 10% medium): − (Lagphase extended less than five times;)
Bacterial growth inhibition ([1]; Peptide 1500 nM, 4.0 × 10^4 bacteria/ml, 10% medium): − (Lagphase extended less than five times;)
Bacterial growth inhibition ([1]; Peptide 1500 nM, 7.9 × 10^3 bacteria/ml, 10% medium): − (Lagphase extended less than five times;)
Bacterial growth inhibition ([1]; Peptide 1500 nM, 16 bacteria/ml, 100% medium): − (Lagphase extended less than five times)
Bacterial growth inhibition ([1]; Peptide 1500 nM, 160 bacteria/ml, 100% medium): − (Lagphase extended less than five times)
Bacterial growth inhibition ([1]; Peptide 1500 nM, 1600 bacteria/ml, 100% medium): − (Lagphase extended less than five times)
Bacterial growth inhibition ([1]; Peptide 2500 nM, 4.0 × 10^3 bacteria/ml, 10% medium): − (Lagphase extended less than five times;)
Bacterial growth inhibition ([1]; Peptide 2500 nM, 4.0 × 10^4 bacteria/ml, 10% medium): − (Lagphase extended less than five times;)
Bacterial growth inhibition ([1]; Peptide 2500 nM, 7.9 × 10^3 bacteria/ml, 10% medium): − (Lagphase extended less than five times;)
Bacterial growth inhibition ([1]; Peptide 2500 nM, 16 bacteria/ml, 100% medium): − (Lagphase extended less than five times)
Bacterial growth inhibition ([1]; Peptide 2500 nM, 160 bacteria/ml, 100% medium): − (Lagphase extended less than five times)
Bacterial growth inhibition ([1]; Peptide 2500 nM, 1600 bacteria/ml, 100% medium): − (Lagphase extended less than five times)
Bacterial growth inhibition ([1]; Peptide 5000 nM, 4.0 × 10^3 bacteria/ml, 10% medium): ((+)) (Lagphase extended less than five times, but still with growth curve effect)
Bacterial growth inhibition ([1]; Peptide 5000 nM, 4.0 × 10^4 bacteria/ml, 10% medium): ((+)) (Lagphase extended less than five times, but still with growth curve effect)
Bacterial growth inhibition ([1]; Peptide 5000 nM, 7.9 × 10^3 bacteria/ml, 10% medium): ((+)) (Lagphase extended less than five times, but still with growth curve effect)
Bacterial growth inhibition ([1]; Peptide 5000 nM, 16 bacteria/ml, 100% medium): − (Lagphase extended less than five times)
Bacterial growth inhibition ([1]; Peptide 5000 nM, 160 bacteria/ml, 100% medium): − (Lagphase extended less than five times)
Bacterial growth inhibition ([1]; Peptide 5000 nM, 1600 bacteria/ml, 100% medium): − (Lagphase extended less than five times)
Bacterial growth inhibition ([1]; Peptide 10000 nM, 4.0 × 10^3 bacteria/ml, 10% medium): ((+)) (Lagphase extended less than five times, but still with growth curve effect)
Bacterial growth inhibition ([1]; Peptide 10000 nM, 4.0 × 10^4 bacteria/ml, 10% medium): ((+)) (Lagphase extended less than five times, but still with growth curve effect)
Bacterial growth inhibition ([1]; Peptide 10000 nM, 7.9 × 10^3 bacteria/ml, 10% medium): ((+)) (Lagphase extended less than five times, but still with growth curve effect)
Bacterial growth inhibition ([1]; Peptide 10000 nM, 16 bacteria/ml, 100% medium): − (Lagphase extended less than five times)
Bacterial growth inhibition ([1]; Peptide 10000 nM, 160 bacteria/ml, 100% medium): − (Lagphase extended less than five times)
Bacterial growth inhibition ([1]; Peptide 10000 nM, 1600 bacteria/ml, 100% medium): − (Lagphase extended less than five times)
Bacterial growth inhibition ([1]; Peptide 15000 nM, 4.0 × 10^3 bacteria/ml, 10% medium): ((+)) (Lagphase extended less than five times, but still with growth curve effect)
Bacterial growth inhibition ([1]; Peptide 15000 nM, 4.0 × 10^4 bacteria/ml, 10% medium): ((+)) (Lagphase extended less than five times, but still with growth curve effect)
Bacterial growth inhibition ([1]; Peptide 15000 nM, 7.9 × 10^3 bacteria/ml, 10% medium): ((+)) (Lagphase extended less than five times, but still with growth curve effect)
Bacterial growth inhibition ([1]; Peptide 15000 nM, 16 bacteria/ml, 100% medium): − (Lagphase extended less than five times)
Bacterial growth inhibition ([1]; Peptide 15000 nM, 160 bacteria/ml, 100% medium): − (Lagphase extended less than five times)
Bacterial growth inhibition ([1]; Peptide 15000 nM, 1600 bacteria/ml, 100% medium): − (Lagphase extended less than five times)
Bacterial growth inhibition ([1]; Peptide 20000 nM, 4.0 × 10^3 bacteria/ml, 10% medium): +
Bacterial growth inhibition ([1]; Peptide 20000 nM, 4.0 × 10^4 bacteria/ml, 10% medium): ((+)) (Lagphase extended less than five times, but still with growth curve effect)
Bacterial growth inhibition ([1]; Peptide 20000 nM, 7.9 × 10^3 bacteria/ml, 10% medium): +
Bacterial growth inhibition ([1]; Peptide 20000 nM, 16 bacteria/ml, 100% medium): (+) (Significantly extended lagphase, (more than five times))
Bacterial growth inhibition ([1]; Peptide 20000 nM, 160 bacteria/ml, 100% medium): − (Lagphase extended less than five times)
Bacterial growth inhibition ([1]; Peptide 20000 nM, 1600 bacteria/ml, 100% medium): − (Lagphase extended less than five times)
Peptide concentration giving total inhibition of growth ([1]; cultures with 7.9×10^3 cells/ml, peptide without PNA): at least 20,000 nM
Peptide concentration at which minimal signs of growth inhibition were detected ([1]; peptide without PNA): ≥ 5,000 nM
Bacterial growth inhibition [2]: − (key: +: Total inhibition of bacterial growth.; (+): Significantly extended lagphase, (more than five times); −: Lagphase extended less than five times;)

H-LLKKLAKALKG-ahex-ado-CCA TCT AAT CCT-NH2 [PNA 228]
Bacterial growth inhibition [3]: − (key: +: Total inhibition of bacterial growth.; (+): Significantly extended lagphase, (more than five times); −: Lagphase extended less than five times;)
